# Test results reported in US20220400680A1, “USE OF ACYLCYANAMIDES OR SALTS THEREOF FOR REGULATING PLANT GROWTH” (Alzchem Trostberg GmbH, priority 2019, published 2022).
# Columns and labels:
# [1] = system: table grapes types Bordon AR and Hammar AR; assay: Field test E3 table grapes India, bud burst; parameters: species or system Vitis vinifera; conditions: in vivo
# Procedure: Three sections of a table grape plantation in India with types Bordon AR and Hammar AR were treated with the following spray mixtures during the dormancy phase:
# E3-0: 600 liters per hectare of water with an addition of 0.1% Break-Thru® OE-446 E3-1: 600 liters per hectare of the spray mixture from example D-1 E3-18: 600 liters per hectare of the spray mixture from example D-18
# As a result, the grapevine sprouts were evenly wetted.
# After 30 and 45 days, respectively, bud burst was recorded numerically.
# Budding means number of buds that have developed at least one leaf after n days, based on the total number of buds on the sprouts at time n=0 days (day of application of spray mixture).
# [2] = system: Table apple, type Boiken apple (C1); assay: Greenhouse test, cut apple branches C1 dipped in test solution, bud development stage; type: in vivo, Malus domestica; parameters: key to Bud development stage, apple branches C1: Stage 0: Buds unchanged; Stage 1: Buds slightly swollen, first green tips visible; Stage 2: strongly swollen, green buds; Stage 3: Buds before breaking open, leaf or flower root already visible; Stage 4: Flower buds fully developed, but still closed, white petals already visible. In the case of the grapevine, stage 4 was the unfolding of the first leaves; Stage 5: Flowers fully open or, in the case of grapevine, unfolding of the flower roots (“Gescheine”) on the fully leafed sprouts
# Outline: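 Cut Boiken apple branches kept in water jars in a greenhouse at about 22 °C under natural light and dipped in test solution. Solutions contained 0.15 mol test substance (0.075 mol for bis-cyanamides) plus 0.15 g BreakThru OE-446 per 500 g water. Bud development scored on a stage scale up to full flowering.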
smiles,measurement,setting,value
"CC(=O)NC#N.[Na] [Example A-1, Sodium Acetylcyanamide]",Effectiveness compared with prior art treatment with cyanamide,[1],at least as effective as the prior art treatment with cyanamide
same,"Bud development stage, apple branches C1","[2]; T1 (14 d), 0.15 mol (A-14, A-15: 0.075 mol) per 500 g solution",0
same,"Bud development stage, apple branches C1",[2]; T2 (16 d),0
same,"Bud development stage, apple branches C1",[2]; T3 (21 d),2
same,"Bud development stage, apple branches C1",[2]; T4 (27 d),3
same,"Bud development stage, apple branches C1",[2]; T5 (36 d),5
same,"Bud development stage, apple branches C1",[2]; T6 (56 d),5
same,"Dormancy-breaking effect according to the definition, apple C1",[2]; stage 4 reached or exceeded after 36 days vs negative control,dormancy-breaking effect
